According to patent publication EP0054589B1, “Organic phosphoric acid ester derivatives, a process for preparing the same and insecticidal, miticidal or nematocidal compositions containing the same” (priority 1980, dated 1982):

Legend:
[1] = system: tobacco cutworm; conditions: U.S. Patent No. 3,969,438; cited from earlier work
[2] = system: smaller tea tortrix; conditions: U.S. Patent No. 3,969,438; cited from earlier work
[3] = system: rice stem borer; conditions: U.S. Patent No. 3,969,438; cited from earlier work
[4] = system: diamond back moth; conditions: U.S. Patent No. 3,969,438; cited from earlier work
[5] = system: apple leaf miner; conditions: U.S. Patent No. 3,969,438; cited from earlier work
[6] = system: carmine mites; assay: Miticidal effect on carmine mite (sprayed kidney bean seedling); assay type: in vivo, Tetranychus cinnabarius; conditions: 500 ppm
Protocol: An emulsifiable concentrate prepared as described in Formulation Example 1 and diluted to a predetermined concentration was sprayed using a spray-gun on a seedling of a kidney bean placed in a pot of 12 cm in diameter to which plant carmine mites were parasitic. After drying in air, seedlings were kept in a green house, and the number of living insects was recorded on the 7th, 14th, 21st and 28th day from the day of application to determine the control effects. Three pots were used for each treatment. The control effect was assessed by the following formula: [formula] • wherein Σ indicates sum and Cb, Tb, Cai and Tai have the following meanings. • Cb: Number of living mites in non-treated sample before application. • Tb: Number of living mites in treated sample before application. • Cai: Number of living mites in non-treated sample 7th, 14th, 21 st or 28th day from the application. • Tai: Number of living mites in treated sample 7th, 14th, 21st or 28th day from the application.

[7] = system: carmine mites resistant to Kelthane; assay: Miticidal effect on carmine mite resistant to Kelthane (sprayed egg plant seedling); assay type: in vivo, Tetranychus cinnabarius; conditions: 500 ppm; for Number of Living Mites after Application 7th Day / Number of Living Mites after Application 14th Day / Number of Living Mites after Application 21st Day / Number of Living Mites after Application 28th Day: egg plant seedling; for Control Effect (%): from mite counts on 7th, 14th, 21st and 28th day
Protocol: (§1) (A) An emulsifiable concentrate prepared as described in Formulation Example 1 and diluted to a predetermined concentration was sprayed using a spray-gun on a seedling of an egg plant placed in a pot of 12 cm in diametre to which plant carmine mites resistant to Kelthane were parasitic. After drying in air, seedlings were kept in a green house, and the number of living insects was recorded on the 7th, 14th, 21 st and 28th day from the day of application to determine the control effects. Three pots were used for each treatment. The control effect was assessed by the formula described in TEST EXAMPLE 7 above. Further, phytotoxicity was observed visually on the 7th day after the application.
as §1, with “(B) An” for “(A) An”, “Example 3” for “Example 1”, “in diameter” for “in diametre”, “in Test” for “in TEST”

[8] = system: egg plant; assay: Phytotoxicity observed visually in the mite test on egg plant; assay type: in vivo; design: key: —: None; +: Slightly toxic; ++: Toxic; +++: Strongly toxic; conditions: 500 ppm, observed visually on the 7th day after the application
Protocol: as §1
as §1, with “(B) An” for “(A) An”, “Example 3” for “Example 1”, “in diameter” for “in diametre”, “in Test” for “in TEST”

[9] = system: rice stem borer; assay: Insecticidal effect on rice stem borer, 3rd-instar larvae (rice seedling dip); assay type: in vivo, Chilo suppressalis; conditions: Table 1; 500 ppm; after 72 hours, 25°C; wettable powder as Formulation Example 5
Summary of the method: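 Wettable-powder formulations were diluted in water to set concentrations, and rice seedlings were dipped in them. Ten 3rd-instar larvae were placed per capped cup with the treated seedlings and held at 25°C.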

[10] = system: tobacco cutworm; assay: Insecticidal effect on tobacco cutworm (cabbage leaf dip); assay type: in vivo, Prodenia litura; conditions: Table 3; 500 ppm; after 48 hours, 25°C; emulsifiable concentrate as Formulation Example 1
Summary of the method: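 Cabbage leaves dipped in water-diluted emulsifiable concentrate (two formulations, tests A and B) and air-dried were fed to 3rd-instar tobacco cutworm larvae at 25°C. Percent mortality scored after 48 hours; 3 replicates of 30 insects per compound.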

[11] = system: diamond back moth; assay: Insecticidal effect on diamond-back moth (cabbage leaf dip); assay type: in vivo, Plutella xylostella; conditions: Table 7; 100 ppm; after 72 hours, 25°C; emulsifiable concentrate as Formulation Example 1
Summary of the method: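 Cabbage leaves dipped 10 s in water-diluted emulsifiable concentrate at set concentration, air-dried; thirty 3rd-instar diamond-back moth larvae per cup held at 25°C. Percent mortality scored after 72 h, three replicates per treatment.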

[12] = system: Apple; assay: Phytotoxicity on various crops; assay type: in vivo; design: key: Symbol — indicates that no toxicity was observed; conditions: 500 ppm sprayed; checked visually after 10 days
Summary of the method: (§2)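 EC diluted to 500 ppm a.i., sprayed generously by gun; greenhouse, 10 d; visual phytotoxicity check; triplicate.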

[13] = system: Beet; assay: Phytotoxicity on various crops; assay type: in vivo; design: key: Symbol — indicates that no toxicity was observed; conditions: 500 ppm sprayed; checked visually after 10 days
Summary of the method: as §2

[14] = system: Cabbage; assay: Phytotoxicity on various crops; assay type: in vivo; design: key: Symbol — indicates that no toxicity was observed; conditions: 500 ppm sprayed; checked visually after 10 days
Summary of the method: as §2

[15] = system: Cotton; assay: Phytotoxicity on various crops; assay type: in vivo; design: key: Symbol — indicates that no toxicity was observed; conditions: 500 ppm sprayed; checked visually after 10 days
Summary of the method: as §2

[16] = system: Cucumber; assay: Phytotoxicity on various crops; assay type: in vivo; design: key: Symbol — indicates that no toxicity was observed; conditions: 500 ppm sprayed; checked visually after 10 days
Summary of the method: as §2

[17] = system: Green Pepper; assay: Phytotoxicity on various crops; assay type: in vivo; design: key: Symbol — indicates that no toxicity was observed; conditions: 500 ppm sprayed; checked visually after 10 days
Summary of the method: as §2

[18] = system: Kidney Bean; assay: Phytotoxicity on various crops; assay type: in vivo; design: key: Symbol — indicates that no toxicity was observed; conditions: 500 ppm sprayed; checked visually after 10 days
Summary of the method: as §2

[19] = system: Rice; assay: Phytotoxicity on various crops; assay type: in vivo; design: key: Symbol — indicates that no toxicity was observed; conditions: 500 ppm sprayed; checked visually after 10 days
Summary of the method: as §2

[20] = system: Tea; assay: Phytotoxicity on various crops; assay type: in vivo; design: key: Symbol — indicates that no toxicity was observed; conditions: 500 ppm sprayed; checked visually after 10 days
Summary of the method: as §2

[21] = system: Tomato; assay: Phytotoxicity on various crops; assay type: in vivo; design: key: Symbol — indicates that no toxicity was observed; conditions: 500 ppm sprayed; checked visually after 10 days
Summary of the method: as §2

[22] = system: egg plant; assay: Phytotoxicity on various crops; assay type: in vivo; design: key: Symbol — indicates that no toxicity was observed; conditions: 500 ppm sprayed; checked visually after 10 days
Summary of the method: as §2

[23] = Table 13, Formulation Example 1
[24] = Table 14, Formulation Example 3

Structure (SMILES) | Number of Living Mites after Application 7th Day [7, 23] | Number of Living Mites after Application 14th Day [7, 23] | Number of Living Mites after Application 21st Day [7, 23] | Number of Living Mites after Application 28th Day [7, 23] | Control Effect (%) ([7]; Table 13) | Number of Living Mites after Application 7th Day [7, 24] | Number of Living Mites after Application 14th Day [7, 24] | Number of Living Mites after Application 21st Day [7, 24] | Number of Living Mites after Application 28th Day [7, 24] | Control Effect (%) ([7]; Table 14) | Phytotoxicit ([8]; Table 13) | Phytotoxicit ([8]; Table 14) | Percent Mortality (%) [9] | Percent Mortality (%) [10] | Percent Mortality (%) [11] | Phytotoxicity: Apple [12] | Phytotoxicity: Beet [13] | Phytotoxicity: Cabbage [14] | Phytotoxicity: Cotton [15] | Phytotoxicity: Cucumber [16] | also measured
CCCSP(=O)(OCC)Oc1ccc2c(C)cc(=O)oc2c1 (stereo not shown) |  |  |  |  |  |  |  |  |  |  |  |  |  |  |  |  |  |  |  |  | pesticidal effect on tobacco cutworm [1]: to some extent; pesticidal effect on smaller tea tortrix [2]: to some extent; pesticidal effect on rice stem borer [3]: to some extent; pesticidal effect on diamond back moth [4]: to some extent; pesticidal effect on apple leaf miner [5]: less effective
OC(c1ccc(Cl)cc1)(c1ccc(Cl)cc1)C(Cl)(Cl)Cl [Kelthane, 2,2,2-trichloro-1,1-bis(4-chlorophenyl)ethanol, reference compound] | 32 | 0 | 118 | 269 | 61.5% | 31 | 58 | 156 | 301 | 32.3% | +++(*) | +++(*) |  |  |  |  |  |  |  |  | Control Effect (%) ([6]; Table 12, from mite counts on 7th, 14th, 21st and 28th day): 99.0%; Number of Living Mites after Application 7th Day ([6]; Table 12, kidney bean seedling): 0; Number of Living Mites after Application 14th Day ([6]; Table 12, kidney bean seedling): 0; Number of Living Mites after Application 21st Day ([6]; Table 12, kidney bean seedling): 5; Number of Living Mites after Application 28th Day ([6]; Table 12, kidney bean seedling): 15
CCOP(=O)(Oc1ccc2c(c1)OC(C)=CC2(C)C)SC(C)CC (stereo not shown) [compound 6] | 0 | 0 | 10 | 54 | 96.4% |  |  |  |  |  | — |  | 100% | 100% | 100% | — | — | — | — | — | Control Effect (%) [6]: 94.9%; Number of Living Mites after Application 7th Day [6]: 0; Number of Living Mites after Application 14th Day [6]: 0; Number of Living Mites after Application 21st Day [6]: 4; Number of Living Mites after Application 28th Day [6]: 45; Phytotoxicity: Green Pepper [17]: —; Phytotoxicity: Kidney Bean [18]: —; Phytotoxicity: Rice [19]: —; Phytotoxicity: Tea [20]: —; Phytotoxicity: Tomato [21]: —; Phytotoxicity: Egg Plant [22]: —
CCOP(=S)(Oc1ccc2c(c1)OC(C)=CC2(C)C)SC(C)CC (stereo not shown) [compound 11] | 0 | 3 | 10 | 48 | 97.0% | 0 | 2 | 17 | 56 | 93.1% | — | — | 100% | 100% | 100% | — | — | — | — | — | Phytotoxicity: Green Pepper [17]: —; Phytotoxicity: Kidney Bean [18]: —; Phytotoxicity: Rice [19]: —; Phytotoxicity: Tea [20]: —; Phytotoxicity: Tomato [21]: —; Phytotoxicity: Egg Plant [22]: —
